Assay results: patent US4202979A, “6-Ethyl(or allyl)-8-methoxymethyl or methylmercaptomethylergolines and related compounds” (priority 1979, dated 1980)
Where a name gives a salt, the structure may show the parent alone. Read-outs that look alike come from different tables or passages of the source.

Legend:
dopamine receptors = assay: inhibition of high affinity binding of tritiated dopamine to dopamine receptors in membranes from striatal synaptosomes of bovine brain; settings: for Ki: Table 3, tritiated dopamine, striatal synaptosomes of bovine brain
[1] = system: 6-hydroxydopamine-lesioned rats (dopamine agonist activity); assay: rat turning test (turning behavior contralateral to lesion in 6-hydroxydopamine-lesioned rats); assay type: in vivo; settings: for Average Number of Turns/rat: first 15 minutes after end of latency period
Method: In this test, nigro-neostriatal-lesioned rats are employed, which are prepared by the procedure of Ungerstedt and Arbuthnott, Brain Res, 24, 485 (1970). A compound having dopamine agonist activity causes the rats to turn in circles contralateral to the side of the lesion. After a latency period, which varies from compound to compound, the number of turns is counted over a 15-minute period.
The compounds were dissolved in water and the aqueous solution injected into the rat by the intraperitoneal route.

prolactin [2] = assay: inhibition of serum prolactin in reserpine-pretreated male rats; assay type: in vivo, rat (Sprague-Dawley); settings: for inhibition at 0.05 mg/kg: Rattus norvegicus, ip, read-out: Percent Inhibition of Serum Prolactin
Method: Adult male rats of the Sprague-Dawley strain weighing about 200 g. were housed in an air-conditioned room with controlled lighting (lights on 6 a.m.-8 p.m.) and fed lab chow and water ad libitum. Each rat received an intraperitoneal injection of 2.0 mg. of reserpine in aqueous suspension 18 hours before administration of the ergoline derivative. The purpose of the reserpine was to keep prolactin levels uniformly elevated. The compounds under test were dissolved in 10 percent ethanol at a concentration of 10 mcg/ml. and were injected intraperitoneally at a standard dose of 50 mcg/kg. Each compound was administered to a group of 10 rats, and a control group of 10 intact males received an equivalent amount of 10 percent ethanol. One hour after treatment all rats were killed by decapitation, and 150 μl aliquots of serum were assayed for prolactin. The results were evaluated statistically using Student's "t" test to calculate the level of significance, "p", of the changes in prolactin level.
The difference between the prolactin level of the treated rats and prolactin level of the control rats, divided by the prolactin level of the control rats gives the percent inhibition of prolactin secretion attributable to the compounds of this invention. In the table, column 1 gives the name of the compound; column 2, the prolactin level for each group of rats; column 3, the percent prolactin inhibition; and column 4, the level of significance. The data were collected from three separate experiments, each with its own control, and Table 2 sets forth the results obtained by experiment.

prolactin [3] = settings: literature; cited from earlier work
[4] = background; cited from earlier work
serotonin = serotonin agonist activity
Parkinsonism = settings: literature; cited from earlier work
dopamine receptor = settings: literature; cited from earlier work
prolactin [5] = assay: inhibition of serum prolactin in reserpine-pretreated male rats; assay type: in vivo, rat (Sprague-Dawley); settings: from dose response curves
[6] = Experiment 3, 50 mcg/kg i.p., 1 hour, control 42.3 ± 7.3, P <0.001
[7] = Experiment 1, 50 mcg/kg i.p., 1 hour, control 30.4 ± 3.4, P <0.001 or <0.01

Structure (SMILES)	Ki (dopamine receptors) [nM]	% of Rats Exhibiting Turning Behavior ([1]; IP dose 1 mg/kg, Table I) [%]	Duration of Effect ([1]; IP dose 1 mg/kg, Table I) [h]	Latency of Effect ([1]; IP dose 1 mg/kg, Table I) [min]	Average Number of Turns/rat ([1]; IP dose 1 mg/kg, Table I) [Turns/rat]	inhibition at 0.05 mg/kg (prolactin [2]; 1 h) [%]	also measured
COC[C@@H]1C[C@@H]2c3cccc4[nH]cc(c34)C[C@H]2N(C)C1 [D-6-methyl-8β-methoxymethylergoline mesylate, reference compound]	75						
CCN1C[C@H](CSC)C[C@@H]2c3cccc4[nH]cc(c34)C[C@H]21 [D-6-ethyl-8β-methylmercaptomethylergoline]	3.5	100	≥ 2	9	112	91	Serum Prolactin Level (prolactin [2]; [6]): 3.9 ± 0.4 ng/mL
CC(C)[C@H]1C(=O)N2CCC[C@H]2[C@]2(O)O[C@](NC(=O)[C@@H]3C[C@@H]4c5cccc6[nH]cc(c56)C[C@H]4N(C)C3)(C(C)C)C(=O)N12 [dihydroergocornine]							prolactin inhibitor activity (in words) (prolactin [3]): activity as prolactin inhibitors
CN1CC(CC#N)C[C@@H]2c3cccc4[nH]cc(c34)C[C@H]21 (stereo partly drawn) [D-6-methyl-8-cyanomethylergoline]							prolactin inhibitor activity (in words) (prolactin [3]): activity as prolactin inhibitors
N[C@@H](Cc1ccc(O)c(O)c1)C(=O)O [1-dopa, 1-dihydroxyphenylalanine]							metabolism (in words) [4]: rapidly metabolized
CCCN1CC(CSC)=C[C@@H]2c3cccc4[nH]cc(c34)C[C@H]21 [D-6-n-propyl-8-methylmercaptomethyl-8-ergolene]	2	100	1	4	118	91	Serum Prolactin Level (prolactin [2]; [6]): 3.9 ± 0.2 ng/mL
CCCN1C[C@H](COC)C[C@@H]2c3cccc4[nH]cc(c34)C[C@H]21 [D-6-n-propyl-8β-methoxymethylergoline methanesulfonate]	10	100	≥ 2	6	111	96	Serum Prolactin Level (prolactin [2]; Experiment 2, 50 mcg/kg i.p., 1 hour, control 55.2 ± 4.1, P <0.001): 2.4 ± 0.2 ng/mL
CCCN1C[C@H](CSC)C[C@@H]2c3cccc4[nH]cc(c34)C[C@H]21 [D-6-n-propyl-8β-methylmercaptomethylergoline]							inhibition of high affinity binding of tritiated dopamine (in words) (dopamine receptors; bovine striatal synaptosome membranes): extremely potent inhibitors; serotonin activity (in words) (serotonin): serotonin agonists rather than serotonin antagonists
CSC[C@@H]1C[C@@H]2c3cccc4[nH]cc(c34)C[C@H]2N(C)C1 [D-6-methyl-8β-methylmercaptomethylergoline mesylate, reference compound]	13	50		30 to 45	51	58	Duration of Effect in Hours ([1]; IP dose 1 mg/kg, Table I): ~ 2 Hours; Serum Prolactin Level (prolactin [2]; [7]): 12.8
CCCN1C[C@H](C[S+](C)[O-])C[C@@H]2c3cccc4[nH]cc(c34)C[C@H]21 (stereo partly drawn) [D-6-n-propyl-8β-methylsulfinylmethylergoline]		100	1	7	65	92	Serum Prolactin Level (prolactin [2]; [6]): 3.3 ng/mL
CC(C)C[C@H]1C(=O)N2CCC[C@H]2[C@]2(O)O[C@](NC(=O)[C@@H]3C=C4c5cccc6[nH]c(Br)c(c56)C[C@H]4N(C)C3)(C(C)C)C(=O)N12 [2-bromo-α-ergokryptine]							treatment of Parkinsonism (in words) (Parkinsonism): useful in the treatment of Parkinsonism; dopamine receptor stimulation (in words) (dopamine receptor): stimulate dopamine receptors; prolactin inhibitor activity (in words) (prolactin [3]): activity as prolactin inhibitors
CSC[C@@H]1C=C2c3cccc4[nH]cc(c34)C[C@H]2N(C)C1 [D-6-methyl-8β-methylmercaptomethyl-9-ergolene, reference compound]	6						
CCCN1C[C@H](CSC)C[C@@H]2c3cccc4[nH]cc(c34)C[C@H]21 [D-6-n-propyl-8β-methylmercaptomethylergoline methanesulfonate]	3 ± 1		≥ 24	5 to 7	105		average turns per lesioned rat ([1]; 15-minute period after latency): 105 turns per lesioned rat; potency in the turning behavior test relative to the corresponding D-6-methyl derivative ([1]; from dose response curves, 6-hydroxydopamine-lesioned rats): about 30 times; potency as a prolactin inhibitor relative to the corresponding D-6-methyl compound (prolactin [5]): about 100 times; Serum Prolactin Level (prolactin [2]; [7]): 1.6 ± 0.4 ng/mL; inhibition at 0.05 mg/kg (prolactin [2]; Experiment 1, 50 mcg/kg i.p., 1 hour, P <0.001 (n-propyl), <0.01 (methyl)): 95%
CCCN1C[C@H](CSC)C=C2c3cccc4[nH]cc(c34)C[C@H]21 [D-6-n-propyl-8β-methylmercaptomethyl-9-ergolene]	2	100	≥ 2	4	200	81	Serum Prolactin Level (prolactin [2]; [6]): 8.1 ± 1.2
C=CCN1C[C@H](CSC)C[C@@H]2c3cccc4[nH]cc(c34)C[C@H]21 [D-6-allyl-8β-methylmercaptomethylergoline]	5						
CC(C)[C@H]1C(=O)N2CCC[C@H]2[C@]2(O)O[C@](NC(=O)[C@@H]3C=C4c5cccc6[nH]cc(c56)C[C@H]4N(C)C3)(C(C)C)C(=O)N12 [Ergocornine]							dopamine receptor stimulation (in words) (dopamine receptor): direct dopamine receptor stimulants of long duration; prolactin inhibitor activity (in words) (prolactin [3]): activity as prolactin inhibitors
CCCN1C[C@H](CSC)C[C@@H]2c3cccc4[nH]c(Br)c(c34)C[C@H]21 [D-2-bromo-6-n-propyl-8β-methylmercaptomethylergoline]	3	100	1	5	71	89	Serum Prolactin Level (prolactin [2]; [6]): 4.6 ± 0.4 ng/mL
CSC[C@@H]1C[C@@H]2c3cccc4[nH]c(Cl)c(c34)C[C@H]2N(C)C1 [D-2-chloro-6-methyl-8β-methylmercaptomethylergoline mesylate, reference compound]	6						
CN1C[C@H](CC#N)C[C@@H]2c3cccc4[nH]c(Cl)c(c34)C[C@H]21 [lergotrile]							treatment of Parkinsonism (in words) (Parkinsonism): useful in the treatment of Parkinsonism
